Reference: patent US10975068B2, “6-aminopyridin-3-yl thiazoles as modulators of RORγT” (Janssen Pharmaceutica NV, priority 2016, dated 2021)
pIC50, pKd: −log10 of the molar value.

How the values were obtained:
full-length human RORγt = full-length human RORγt (Homo sapiens (Human), UniProt P51449); assay: RORγt (full-length human) reporter assay, Conditions B or C; format: cell-based; settings: for inhibition at 3 µM: at 3 μM compound concentration, read-out: RORγt (FL) Reporter Assay B or C, % inhibition; for pIC50: read-out: RORγt (FL) Reporter Assay B or C, IC50
Method in brief: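 Readout is dual luciferase: firefly (GAL4-driven) normalized to DMSO-only and saturating-reference controls, then to CMV-Renilla. Full-length human RORγt fused to GAL4-DBD was transiently expressed in HEK293T; compound exposure ran overnight (16-20 h) starting 4-6 h after transfection, final FBS 1.3%, DMSO 0.1%.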

[1] = target: human RORγt ligand binding domain (RORγt LBD) (Homo sapiens (Human), UniProt P51449); assay: RORγt ThermoFluor® assay (thermal shift binding); settings: read-out: ThermoFluor® Assay, Kd
Method in brief: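 Binding was inferred from thermal stabilisation (ΔTm) of the E. coli-expressed RORγt LBD (0.065 mg/mL), monitored by 1,8-ANS (60 μM) emission at 500 nm during a 1 °C/min ramp. Buffer was Hepes 100 mM pH 7.0 with NaCl, GSH and Tween-20.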

Chain of human RORγt ligand binding domain (RORγt LBD) (P51449 other isoform, or with tags, fused parts or gaps): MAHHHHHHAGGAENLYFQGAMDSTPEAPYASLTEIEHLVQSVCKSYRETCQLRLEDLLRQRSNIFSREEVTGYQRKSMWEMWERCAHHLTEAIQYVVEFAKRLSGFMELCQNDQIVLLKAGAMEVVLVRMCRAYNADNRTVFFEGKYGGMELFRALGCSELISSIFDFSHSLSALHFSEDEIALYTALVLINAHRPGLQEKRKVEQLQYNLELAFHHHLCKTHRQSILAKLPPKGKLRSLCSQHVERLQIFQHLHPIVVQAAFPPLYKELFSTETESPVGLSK
Chain of full-length human RORγt (P51449 other isoform, or with tags, fused parts or gaps): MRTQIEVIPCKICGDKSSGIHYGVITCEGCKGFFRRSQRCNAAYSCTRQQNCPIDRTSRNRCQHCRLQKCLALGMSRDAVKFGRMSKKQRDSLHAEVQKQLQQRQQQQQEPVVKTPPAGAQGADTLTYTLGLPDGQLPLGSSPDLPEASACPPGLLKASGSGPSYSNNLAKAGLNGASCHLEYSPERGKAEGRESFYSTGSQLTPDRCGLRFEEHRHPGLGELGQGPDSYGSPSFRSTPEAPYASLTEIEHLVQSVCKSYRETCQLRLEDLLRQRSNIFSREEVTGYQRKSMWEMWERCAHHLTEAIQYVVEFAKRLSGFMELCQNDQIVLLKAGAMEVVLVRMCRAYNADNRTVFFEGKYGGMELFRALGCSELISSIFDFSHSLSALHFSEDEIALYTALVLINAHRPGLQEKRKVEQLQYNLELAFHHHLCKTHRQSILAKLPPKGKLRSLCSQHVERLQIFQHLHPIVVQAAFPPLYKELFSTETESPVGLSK

| inhibition at 3 µM (full-length human RORγt) [%] | pIC50 (full-length human RORγt) | pKd [1] | Compound |
| --- | --- | --- | --- |
| 111 | 7.20 | 7.80 | C[C@H]1CCCN1C(=O)c1nc(C(=O)NC[C@@H](O)CO)sc1-c1cnc(NC(C)(C)C)cc1C(F)(F)F [Example 345, 5-[6-(tert-Butylamino)-4-(trifluoromethyl)-3-pyridyl]-N-[(2R)-2,3-dihydroxypropyl]-4-[(2S)-2-methylpyrrolidine-1-carbonyl]thiazole-2-carboxamide] |
| 112 | 7.89 | 8.85 | C[C@H](CO)NC(=O)c1nc(C(=O)N2CCC[C@@H]2C)c(-c2cnc(NC(C)(C)C)cc2C(F)(F)F)s1 [Example 346, 5-[6-(tert-Butylamino)-4-(trifluoromethyl)-3-pyridyl]-N-[(1R)-2-hydroxy-1-methyl-ethyl]-4-[(2S)-2-methylpyrrolidine-1-carbonyl]thiazole-2-carboxamide] |
| 124 | 8.42 | 9.42 | C[C@H]1CCCN1C(=O)c1nc(C(=O)NC2CCCC2O)sc1-c1cnc(NC(C)(C)C)cc1C(F)(F)F (stereo partly drawn) [Example 347, 5-[6-(tert-Butylamino)-4-(trifluoromethyl)-3-pyridyl]-N-[cis-2-hydroxycyclopentyl]-4-[(2S)-2-methylpyrrolidine-1-carbonyl]thiazole-2-carboxamide] |
| 105 | 8.51 | 9.05 | C[C@H]1CCCN1C(=O)c1nc(C(=O)N[C@H]2COC[C@@H]2O)sc1-c1cnc(NC(C)(C)C)cc1C(F)(F)F [Example 348, 5-[6-(tert-Butylamino)-4-(trifluoromethyl)-3-pyridyl]-N-[(3S,4R)-4-hydroxytetrahydrofuran-3-yl]-4-[(2S)-2-methylpyrrolidine-1-carbonyl]thiazole-2-carboxamide] |
| 105 | 7.20 | 7.96 | C[C@H]1CCCN1C(=O)c1nc(C(=O)N2CC[C@@H](O)C2)sc1-c1cnc(NC(C)(C)C)cc1C(F)(F)F [Example 349, [5-[6-(tert-Butylamino)-4-(trifluoromethyl)-3-pyridyl]-2-[(3R)-3-hydroxypyrrolidine-1-carbonyl]thiazol-4-yl]-[(2S)-2-methylpyrrolidin-1-yl]methanone] |
| 110 | 7.52 | 8.08 | C[C@H]1CCCN1C(=O)c1nc(C(=O)N2CC[C@H](O)C2)sc1-c1cnc(NC(C)(C)C)cc1C(F)(F)F [Example 350, [5-[6-(tert-Butylamino)-4-(trifluoromethyl)-3-pyridyl]-2-[(3S)-3-hydroxypyrrolidine-1-carbonyl]thiazol-4-yl]-[(2S)-2-methylpyrrolidin-1-yl]methanone] |
|  | 8.10 | 9.82 | C[C@H]1CCCN1C(=O)c1nc(C(=O)N[C@@H]2CCC[C@H]2O)sc1-c1cnc(NC(C)(C)C)cc1C(F)(F)F [Example 351, 5-[6-(tert-Butylamino)-4-(trifluoromethyl)-3-pyridyl]-N-[(1R,2R)-2-hydroxycyclopentyl]-4-[(2S)-2-methylpyrrolidine-1-carbonyl]thiazole-2-carboxamide] |
| 98 | 6.77 | 7.66 | C[C@H]1CCCN1C(=O)c1nc(C(=O)NCC(C)(C)N)sc1-c1cnc(NC(C)(C)C)cc1C(F)(F)F [Example 355, N-(2-Amino-2-methyl-propyl)-5-[6-(tert-butylamino)-4-(trifluoromethyl)-3-pyridyl]-4-[(2S)-2-methylpyrrolidine-1-carbonyl]thiazole-2-carboxamide] |
| 94 | 7.46 | 7.33 | C[C@H]1CCCN1C(=O)c1nc(C(=O)NC2CN(C)C2)sc1-c1cnc(NC(C)(C)C)cc1C(F)(F)F [Example 356, 5-[6-(tert-Butylamino)-4-(trifluoromethyl)-3-pyridyl]-N-(1-methylazetidin-3-yl)-4-[(2S)-2-methylpyrrolidine-1-carbonyl]thiazole-2-carboxamide] |
| 106 | 7.92 | 8.92 | C[C@H]1CCCN1C(=O)c1nc(C(=O)NCC(C)(O)C(F)(F)F)sc1-c1cnc(NC(C)(C)C)cc1C(F)(F)F (stereo partly drawn) [Example 357, 5-(6-(tert-Butylamino)-4-(trifluoromethyl)pyridin-3-yl)-4-((S)-2-methylpyrrolidine-1-carbonyl)-N-(3,3,3-trifluoro-2-hydroxy-2-methylpropyl)thiazole-2-carboxamide] |
| 106 | 7.09 | 8.00 | C[C@H]1CCCN1C(=O)c1nc(C(=O)N2C[C@@H]3C[C@H]2CO3)sc1-c1cnc(NC(C)(C)C)cc1C(F)(F)F [Example 360, [5-[6-(tert-Butylamino)-4-(trifluoromethyl)-3-pyridyl]-2-[(1S,4S)-2-oxa-5-azabicyclo[2.2.1]heptane-5-carbonyl]thiazol-4-yl]-[(2S)-2-methylpyrrolidin-1-yl]methanone] |
| 105 | 7.60 | 9.43 | C[C@H]1CCCN1C(=O)c1nc(C(=O)N[C@H]2CC[C@H](O)C2)sc1-c1cnc(NC(C)(C)C)cc1C(F)(F)F [Example 361, 5-[6-(tert-Butylamino)-4-(trifluoromethyl)-3-pyridyl]-N-[(1S,3S)-3-hydroxycyclopentyl]-4-[(2S)-2-methylpyrrolidine-1-carbonyl]thiazole-2-carboxamide] |
| 99 | 7.68 | 8.40 | C[C@@H](CO)NC(=O)c1nc(C(=O)N2CCC[C@@H]2C)c(-c2cnc(NC(C)(C)C)cc2C(F)(F)F)s1 [Example 362, 5-[6-(tert-Butylamino)-4-(trifluoromethyl)-3-pyridyl]-N-[(1S)-2-hydroxy-1-methyl-ethyl]-4-[(2S)-2-methylpyrrolidine-1-carbonyl]thiazole-2-carboxamide] |
| 111 | 6.89 | 7.89 | C[C@H]1CCCN1C(=O)c1nc(C(=O)NC[C@H](O)CO)sc1-c1cnc(NC(C)(C)C)cc1C(F)(F)F [Example 363, 5-[6-(tert-Butylamino)-4-(trifluoromethyl)-3-pyridyl]-N-[(2S)-2,3-dihydroxypropyl]-4-[(2S)-2-methylpyrrolidine-1-carbonyl]thiazole-2-carboxamide] |
| 111 | 7.41 | 8.10 | C[C@H]1CCCN1C(=O)c1nc(C(=O)N2CCC(C)(O)C2)sc1-c1cnc(NC(C)(C)C)cc1C(F)(F)F (stereo partly drawn) [Example 364, (5-(6-(tert-Butylamino)-4-(trifluoromethyl)pyridin-3-yl)-2-(3-hydroxy-3-methylpyrrolidine-1-carbonyl)thiazol-4-yl)((S)-2-methylpyrrolidin-1-yl)methanone] |
| 99 | 7.68 | 8.68 | C[C@H]1CCCN1C(=O)c1nc(C(=O)N[C@H]2CC[C@@H](O)C2)sc1-c1cnc(NC(C)(C)C)cc1C(F)(F)F [Example 367, 5-[6-(tert-Buylamino)-4-(trifluoromethyl)-3-pyridyl]-N-[(1S,3R)-3-hydroxycyclopentyl]-4-[(2S)-2-methylpyrrolidine-1-carbonyl]thiazole-2-carboxamide] |
| 110 | 8.12 | 8.77 | C[C@H]1CCCN1C(=O)c1nc(C(=O)N2CC3(COC3)C2)sc1-c1cnc(NC(C)(C)C)cc1C(F)(F)F [Example 368, [5-[6-(tert-Butylamino)-4-(trifluoromethyl)-3-pyridyl]-2-(6-oxa-2-azaspiro[3.3]heptane-2-carbonyl)thiazol-4-yl]-[(2S)-2-methylpyrrolidin-1-yl]methanone] |
| 106 | 8.18 | 9.15 | C[C@H]1CCCN1C(=O)c1nc(C(=O)NC2CCC2O)sc1-c1cnc(NC(C)(C)C)cc1C(F)(F)F (stereo partly drawn) [Example 369, 5-(6-(tert-Butylamino)-4-(trifluoromethyl)pyridin-3-yl)-N-(trans-2-hydroxycyclobutyl)-4-((S)-2-methylpyrrolidine-1-carbonyl)thiazole-2-carboxamide] |
| 125 | 7.23 | 8.04 | C[C@H]1CCCN1C(=O)c1nc(C(=O)N2C[C@@H](O)[C@H](F)C2)sc1-c1cnc(NC(C)(C)C)cc1C(F)(F)F [Example 372, [5-[6-(tert-Butylamino)-4-(trifluoromethyl)-3-pyridyl]-2-[(3R,4R)-3-fluoro-4-hydroxy-pyrrolidine-1-carbonyl]thiazol-4-yl]-[(2S)-2-methylpyrrolidin-1-yl]methanone] |
| 122 | 8.34 | 8.72 | C[C@H]1CCCN1C(=O)c1nc(C(=O)N[C@@H]2CCOC2)sc1-c1cnc(NC(C)(C)C)cc1C(F)(F)F [Example 373, 5-[6-(tert-Butylamino)-4-(trifluoromethyl)-3-pyridyl]-4-[(2S)-2-methylpyrrolidine-1-carbonyl]-N-[(3R)-tetrahydrofuran-3-yl]thiazole-2-carboxamide] |
| 121 | 8.32 | 8.80 | C[C@H]1CCCN1C(=O)c1nc(C(=O)NC2CCOCC2)sc1-c1cnc(NC(C)(C)C)cc1C(F)(F)F [Example 374, 5-[6-(tert-Butylamino)-4-(trifluoromethyl)-3-pyridyl]-4-[(2S)-2-methylpyrrolidine-1-carbonyl]-N-tetrahydropyran-4-yl-thiazole-2-carboxamide] |
